Consider seven molecules from patent US12076368B2, “Treatment of liver, biliary tract and pancreatic disorders” (Novozymes A/S, priority 2016, dated 2024).

Positions of bridges follow the written chain, without caps; N, C: chain ends. No end group written: not given here.

One series relates to isolated hepatocytes. Particulars: Liu et al. (2008); cited from earlier work.
For another series, the system named is C57Bl/6J DIO male mice. The series is described as follows: GLP-1 analog (liraglutide) treatment of high fat diet fed DIO mice (Example 5). The series is classed as in vivo. Particulars: 0.2 mg/kg BID subcutaneously, 4 weeks. The text has this: FIG. 31: Schematic outline of the experimental set up for investigating the effects of a GLP-1 analog (Liraglutid) on mouse gut inflammation and microbiota. At week −40, the C57/BI/6J DIO mice arrived. The mice were fed a high fat diet 60% fat, SSNIFF (Diet #D12492) or purina chow for 38 weeks to achieve an average body weight of 55 gram. From week −2 the mice were single housed. Faecal samples were collected on day −1 and 27 for 16S RNA analysis. Samples from ilium were collected 2 cm from caecum at day 28.
4 weeks old C57Bl/6J DIO male mice were fed a high fat diet (HFD 60% fat, SSNIFF (Diet #D12492)) or purina chow for […]. The HFD fed group had reached an average weight of approximately 55 grams by start of intervention. The mice were group housed 10 per cage until week −2. From week −2 the mice were single housed throughout the study. Feed intake was registered daily just before lights were turned off at 3 pm. Individual mice were subjected to experimental procedures in altered order both group and cage wise. Mice were kept at room temperature under a 12-hour light/dark cycle at SPF standard conditions.
Mice were fed either a high fat diet (HFD) or a low fat (LF) control diet. The HFD contained 2 subgroups; 1 GLP-1 analog and 1 standard HFD without supplementation of GLP-1 analog. The GLP-1 analog liraglutide was dissolved in PBS and 0.1% BSA was added. The GLP-1 analog was administered at 0.2 mg/kg BID subcutaneously.

Series [1] deals with Dextran Sodium Sulphate (DSS) Induced Colitis Model in Mice. The series is described as follows: Acute 10-day DSS induced colitis model, hBD-2-albumin fusion C-terminal (Example 9). The format is in vivo. To be noted: Pred 1 mg/kg orally daily. On the procedure:
“hBD-2-albumin C-terminal” was administered intravenously via the tail vein or subcutaneously with the use of a sterile 25 G needle in a dosing volume of 10 ml/kg body weight. The animals received 1 dose daily for 10 […] days. The active control Prednisolone (Pred) was given orally by gavage at a dose of 1 mg/kg in a dosing volume of 10 ml/kg body weight OD.

The test system is the same in series [2]. Description: Acute 10-day DSS induced colitis model, hBD-2-albumin fusion N-terminal (Example 8). The series is classed as in vivo. To be noted: fusion iv or sc daily; DEX 1 mg/kg sc OD. As for the experimental part:
“hBD-2-albumin N-terminal” was administered intravenously via the tail vein or subcutaneously with the use of a sterile 25 G needle in a dosing volume of 10 ml/kg body weight. The animals received 1 dose daily for 10 executive days.

For series [3] the following is noted: degradation by dipeptidyl peptidase-4; cited from earlier work.
Series [4] is described as follows: Pharmacokinetics of hBD-2 after single oral gavage (Example 6). The format is in vivo, NMRI mice. To be noted: oral dosing of 4 mg/kg in mice. On the procedure: FIG. 35. Pharmacokinetic data following oral administration of 4 mg/kg hBD-2 to female NMRI mice. […] The results are given as group mean+/−SEM.
21 female NMRI mice were dosed by oral gavage 5 ml/kg using a gavage tube and a 1 ml syringe according to the individual body weight obtained on the day of dosing. Urine was strived sampled at random time points by gently massaging the inguinal area of the abdomen. The first blood sample was taken using a submandibular sampling method. The second blood sample was collected from Isoflurane anaesthetised mice. Intestinal samples were taken after euthanasia. The abdomen of each mouse was opened and three sections of the intestines were sampled.

The nature of series [5]: Pharmacokinetics of hBD-2 and hBD-2-albumin fusions after subcutaneous or intravenous administration (Example 7). The series is classed as in vivo, NMRI female mice. To be noted: hBD-2 1 mg/kg. On the procedure: FIG. 36. Pharmacokinetic data for hBD-2 following subcutaneous (SC) and intravenous (IV) administration of 1 mg/kg respectively. […] The different curves represent different experiments and detection methods (HPLC and ELISA).
FIG. 37. Pharmacokinetic data for “hBD-2-albumin fusion N-terminal” following subcutaneous and intravenous administration of 16.5 mg/kg respectively. […] The results are the mean of 4 mice/sampling time+/−SD.
FIG. 38. Pharmacokinetic data for “hBD-2-albumin fusion C-terminal” following subcutaneous and intravenous administration of 16.5 mg/kg respectively. […] The results are the mean of 4 mice/sampling time+/−SD.
The animals were dosed 10 ml/kg of stock concentration of 1.65 mg/ml according to the individual body weight (300 μL for a 30 gram mouse). First blood sample was taken using a submandibular sampling method and the second following Isoflurane anaesthesia and euthanasia.

Where [6] appears, read: compared to untreated HFD reference group.

As to “human neutrophil peptide 2 (CYCRIPACIAGERRYGTCIYQGRLWAFCC; listed as Homo sapiens) [HNP-2, alpha defensin produced by leucocytes]”, the glycogenolysis and gluconeogenesis entry with isolated hepatocytes was “able to inhibit glycogenolysis and gluconeogenesis in isolated hepatocytes”.
`CCCCCCCCCCCCCCCC(=O)N[C@@H](CCC(=O)NCCCC[C@H](NC(=O)[C@H](C)NC(=O)[C@H](C)NC(=O)[C@H](CCC(N)=O)NC(=O)CNC(=O)[C@H](CCC(=O)O)NC(=O)[C@H](CC(C)C)NC(=O)[C@H](Cc1ccc(O)cc1)NC(=O)[C@H](CO)NC(=O)[C@H](CO)NC(=O)[C@@H](NC(=O)[C@H](CC(=O)O)NC(=O)[C@H](CO)NC(=O)[C@@H](NC(=O)[C@H](Cc1ccccc1)NC(=O)[C@@H](NC(=O)CNC(=O)[C@H](CCC(=O)O)NC(=O)[C@H](C)NC(=O)[C@@H](N)Cc1cnc[nH]1)[C@@H](C)O)[C@@H](C)O)C(C)C)C(=O)N[C@@H](CCC(=O)O)C(=O)N[C@@H](Cc1ccccc1)C(=O)N[C@H](C(=O)N[C@@H](C)C(=O)N[C@@H](Cc1c[nH]c2ccccc12)C(=O)N[C@@H](CC(C)C)C(=O)N[C@H](C(=O)N[C@@H](CCCNC(=N)N)C(=O)NCC(=O)N[C@@H](CCCNC(=N)N)C(=O)NCC(=O)O)C(C)C)[C@@H](C)CC)C(=O)O` [GLP-1 analog, liraglutide]: the “liver weight at termination vs chow fed mice” value with C57Bl/6J DIO male mice is on record as “not statistically significantly different”. For the same molecule, in the series with C57Bl/6J DIO male mice (setting [6]), the body weight lost is listed as 25-30% and the “body weight lost (average)” value was determined as 15 gram. In addition, the “plasma cholesterol level vs HFD reference group” value with C57Bl/6J DIO male mice (p<0.01) is reported as “statistically significantly lower”.
For the molecule `C[C@]12C=CC(=O)C=C1CC[C@@H]1[C@@H]2[C@@H](O)C[C@@]2(C)[C@H]1CC[C@]2(O)C(=O)CO` [Pred, Prednisolone], the “histological injury, proximal part of the colon” value in series [1] is on record as “failed to significantly reduce histological injury in the proximal part of the colon”. Moreover, the “histological injury, distal colon” value in series [1] (p<0.01) is recorded as “did reduce the injury in the distal colon”. The DAI result in series [1] (p<0.05) is “significant inhibition of the DAI on day 9”.
On to `C[C@@H]1C[C@H]2[C@@H]3CCC4=CC(=O)C=C[C@]4(C)[C@@]3(F)[C@@H](O)C[C@]2(C)[C@@]1(O)C(=O)CO` [DEX, Dexamethasone], for which, in series [2], the body weight entry was “very significant decrease in body weight from day 5 onwards” and the “histological damage of colonic tissue” value is given as “failed to significantly reduce histological injury”.
In the case of Glucagon-like peptide-1 [GLP-1], the “half-life in the circulation” value in series [3] is recorded as “less than 2 minutes”.
As to human neutrophil peptide 1 [HNP-1], the glycogenolysis and gluconeogenesis entry in the series on isolated hepatocytes is “able to inhibit glycogenolysis and gluconeogenesis in isolated hepatocytes”.
On to “GIGDPVTCLKSGAICHPVFCPRRYKQIGTCGLPGTKCCKKP (disulfide 8-37, 15-30, 20-38) [hBD-2, human beta defensin 2]”, for which, in series [4], the “systemic availability after oral dosing” value is listed as “not systemically available”. The renal clearance in series [5] turned out to be 10 mL/min.
